Assay results taken from US5589510A, “Method for inhibiting retroviral infection by administering a naphthalenesulfonic acid compound” (priority 1995, dated 1996).
Where two headings read alike, the source gives them in different places.

Assays:
[1] = target: T1, recombinant reverse transcriptase (RT) (Human immunodeficiency virus type 1 group M subtype B, UniProt P04585); test: Reverse transcriptase inhibition assay; assay type: biochemical, HIV-1
T1 construct: purchased Worthington Biochemical Corporation
Experimental: Inhibition of recombinant reverse transcriptase (RT) was performed by using commercially available Boehringer Mannheim RT assay kit (Cat. No. 1468 120) based on incorporation of digoxigenin labeled dUTP into DNA. Recombinant enzyme from HIV-1 was purchased from Worthington Biochemical Corporation. The level of anti-RT activity in the sample was determined by measurement of absorbance using an ELISA reader at 405 nm.

LD50, intravenous, mice = assay type: in vivo; conditions: mouse, in vivo, female mice, mortalities within 1 week
Experimental: The test material was administered intravenously to 5 female mice in five increasing doses. Mortalities were recorded within 1 week, and the LD50 was determined with the aid of statistical calculations.

HIV-1 RF [2] = test: Antiviral assay, Experimental Protocol I (compound added after infection); assay type: cell-based; conditions: Human immunodeficiency virus 1, 240 h, p24 ELISA, read-out: % Inhibition (after day 10); for inhibition at 1.25 µg/mL: 1.25 μg/ml; for inhibition at 2.5 µg/mL: 2.5 μg/ml; for inhibition at 5 µg/mL: 5 μg/ml; for inhibition at 0.6 µg/mL: 0.6 μg/ml; for inhibition at 0.3 µg/mL: 0.3 μg/ml
Experimental: HIV-1 infectivity studies were conducted in CEM, H9, MT2 cells and peripheral blood mononuclear cells (PBMC). CEM, H9 and MT2 were grown in RPMI1640 medium, 10% heat-inactivated fetal bovine serum (FBS). PBMCs were stimulated with 4 μg/ml PHA for 48 hours in RPMI1640, 10% FBS before HIV-1 infection. After HIV-1 infection, PBMCs were maintained in RPMI 1640, 10% FBS and 10 10 units/ml IL-2. The major HIV-1 isolates used were MN, IIIB, SF2, AZT-sensitive A018 and AZT-resistant A018 provided by NIH AIDS research and reference reagent program. Two major antiviral assays were developed to determine the antiviral activities of the compounds of this invention (as inhibitors).
I. The cells were infected with HIV-1 RF or IIIB at an infectivity multiplicity (moi) of 0.001 in the absence of a compound of this invention for one hour. HIV-1 infected cells were washed once with PBS, resuspended in RPMI1640, 10% FBS medium and distributed in 24-well culture dishes (5×10^5 cells per well) in the presence of a compound of this invention as inhibitor. […]

[3] = test system: TA98, TA1535, TA1537, TA1538, TA100 and W2P2uvr; test: Ames Test (in the presence of S9); assay type: cell-based, Salmonella typhimurium
From the text: Six Salmonella typhimuriumstrai strains, TA98, TA1535, TA1537, TA1538, TA100 and W2P2uvr were used in this experiment.

HIV-1 patient isolate IH = test: Inhibition of HIV-1 patient isolate IH in PBMCs; assay type: cell-based; conditions: Human immunodeficiency virus 1, PBMC, 288 h, read-out: % Inhibition (after day 12); for inhibition at 5 µg/mL: 5 μg/ml; for inhibition at 10 µg/mL: 10 μg/ml; for inhibition at 20 µg/mL: 20 μg/ml; for inhibition at 2.5 µg/mL: 2.5 μg/ml
Experimental: The inhibitory effects of additional naphthalenesulfonic acid compounds were tested as follows: Experimental Details:
PBMCs were activated for 48 hours in conditioned medium containing PHA at a concentration of 4 μg/ml. […] The test compound, previously dissolved in a glucose solution (1 mg/ml), was then added to each of the wells to achieve the appropriate concentration. The plate was then incubated overnight (about 15 hours) after which 50 μl of cell-free HIV-1 patient isolate was added to each well. The plates were incubated for further 6 to 8 hours after which all free floating solution of virus was washed off. Washing was performed four times.
After removal of the virus, all cultures were resuspended in conditioned medium containing 10% FCS.
For control experiments virus growth was monitored in either 10% FCS or 50% FCS throughout the observation period (15 days).

HIV-1 RF [4] = test: Antiviral assay, Experimental Protocol II (virus incubated with compound before cells); assay type: cell-based; conditions: Human immunodeficiency virus 1, 240 h, 10% FCS, p24 ELISA, read-out: % Inhibition (after day 10)
[5] = the higher the value, the higher the mutagenicity

SMILES | inhibition at 0.5 µM [1] [%] | LD50 at 168 h (LD50, intravenous, mice) [mg/kg] | inhibition at 1.25 µg/mL (HIV-1 RF [2]; 10% FCS) [%] | inhibition at 2.5 µg/mL (HIV-1 RF [2]; 10% FCS) [%] | inhibition at 5 µg/mL (HIV-1 RF [2]; 10% FCS) [%] | Ames Test result [3] | inhibition at 5 µg/mL (HIV-1 patient isolate IH; 10% FCS) [%] | inhibition at 10 µg/mL (HIV-1 patient isolate IH; 10% FCS) [%] | inhibition at 20 µg/mL (HIV-1 patient isolate IH; 10% FCS) [%] | inhibition at 0.6 µg/mL (HIV-1 RF [2]; 10% FCS) [%] | further results
CCC(C)(C)c1ccc(OCC(=O)Nc2cc(S(=O)(=O)O)cc3cc(S(=O)(=O)O)c(N=Nc4cc(OC)c(N=Nc5c(S(=O)(=O)O)cc6cc(S(=O)(=O)O)cc(NC(C)=O)c6c5O)cc4OC)c(O)c23)c(C(C)(C)CC)c1 [Compound 3] | 77 | 150 | 96 | 100 | 100 | Negative | – | – | – | – | –
COc1cc(N=Nc2c(S(=O)(=O)O)cc3cc(S(=O)(=O)O)cc(NC(=O)c4cccc(Cl)c4Cl)c3c2O)c(OC)cc1N=Nc1c(S(=O)(=O)O)cc2cc(S(=O)(=O)O)cc(NC(=O)COc3ccccc3)c2c1O [Compound 4] | – | 160 | – | – | – | Negative | 60 | 88 | 98 | – | –
COc1cc(N=Nc2c(S(=O)(=O)O)cc3cc(S(=O)(=O)O)cc(NC(=O)c4ccccc4)c3c2O)c(OC)cc1N=Nc1c(S(=O)(=O)O)cc2cc(S(=O)(=O)O)cc(NC(C)=O)c2c1O [Compound 5] | – | 120 | 87 | 100 | 100 | Negative | 45 | 77 | 77 | 45 | –
COc1cc(N=Nc2c(S(=O)(=O)O)cc3cc(S(=O)(=O)O)cc(NC(=O)c4cc(Cl)ccc4Cl)c3c2O)c(OC)cc1N=Nc1c(S(=O)(=O)O)cc2cc(S(=O)(=O)O)cc(NC(=O)c3cc(Cl)ccc3Cl)c2c1O [Compound 7] | 41 | 170 | 99 | 100 | 100 | Positive | – | – | – | 81 | inhibition at 5 µM [1]: 75%; inhibition at 0.6 µg/mL (HIV-1 RF [2]; 50% Human Serum): 0%; inhibition at 1.25 µg/mL (HIV-1 RF [2]; 50% Human Serum): 0%; inhibition at 2.5 µg/mL (HIV-1 RF [2]; 50% Human Serum): 48%; inhibition at 5 µg/mL (HIV-1 RF [2]; 50% Human Serum): 97%; Ames Test, specific mutagenic activity ([3]; unit as printed for Compound 7): 0.05 colony no/g g
COc1cc(N=Nc2c(S(=O)(=O)O)cc3cc(S(=O)(=O)O)cc(NC(=O)c4ccc(Cl)c(Cl)c4)c3c2O)c(OC)cc1N=Nc1c(S(=O)(=O)O)cc2cc(S(=O)(=O)O)cc(NC(=O)c3ccc(Cl)c(Cl)c3)c2c1O [Compound 10] | 55 | 140 | – | – | – | Negative | – | – | – | – | –
COc1cc(N=Nc2c(S(=O)(=O)O)cc3cc(S(=O)(=O)O)cc(NC(=O)c4ccc(Cl)cc4Cl)c3c2O)c(OC)cc1N=Nc1c(S(=O)(=O)O)cc2cc(S(=O)(=O)O)cc(NC(=O)c3ccc(Cl)cc3Cl)c2c1O [Compound 11] | 30 | 160 | 100 | 100 | 100 | Positive | 0 | 100 | 100 | 100 | inhibition at 2.5 µg/mL (HIV-1 patient isolate IH; 10% FCS): 0%; inhibition at 2.5 µg/mL (HIV-1 patient isolate IH; 50% Human Serum): 0%; inhibition at 5 µg/mL (HIV-1 patient isolate IH; 50% Human Serum): 0%; inhibition at 10 µg/mL (HIV-1 patient isolate IH; 50% Human Serum): 31%; inhibition at 20 µg/mL (HIV-1 patient isolate IH; 50% Human Serum): 100%; inhibition at 0.3 µg/mL (HIV-1 RF [2]; 10% FCS): 99%; inhibition at 0.6 µg/mL (HIV-1 RF [2]; 50% Human Serum): 55%; inhibition at 1.25 µg/mL (HIV-1 RF [2]; 50% Human Serum): 87%; inhibition at 2.5 µg/mL (HIV-1 RF [2]; 50% Human Serum): 93%; inhibition at 5 µg/mL (HIV-1 RF [2]; 50% Human Serum): 98%; Ames Test, specific mutagenic activity [3, 5]: 0.02 colony no/μg
COc1cc(N=Nc2c(S(=O)(=O)O)cc3cc(S(=O)(=O)O)cc(NC(=O)c4cc(Cl)ccc4Cl)c3c2O)c(OC)cc1N=Nc1c(S(=O)(=O)O)cc2cc(S(=O)(=O)O)cc(NC(=O)c3ccc(Cl)c(Cl)c3)c2c1O [Compound 12] | – | 190 | 99 | 100 | 100 | Negative | 85 | 100 | 100 | 96 | inhibition at 2.5 µg/mL (HIV-1 patient isolate IH; 10% FCS): 0%; inhibition at 2.5 µg/mL (HIV-1 patient isolate IH; 50% Human Serum): 0%; inhibition at 5 µg/mL (HIV-1 patient isolate IH; 50% Human Serum): 0%; inhibition at 10 µg/mL (HIV-1 patient isolate IH; 50% Human Serum): 90%; inhibition at 20 µg/mL (HIV-1 patient isolate IH; 50% Human Serum): 93%; inhibition at 0.3 µg/mL (HIV-1 RF [2]; 10% FCS): 86%; inhibition at 0.6 µg/mL (HIV-1 RF [2]; 50% Human Serum): 0%; inhibition at 1.25 µg/mL (HIV-1 RF [2]; 50% Human Serum): 0%; inhibition at 2.5 µg/mL (HIV-1 RF [2]; 50% Human Serum): 40%; inhibition at 5 µg/mL (HIV-1 RF [2]; 50% Human Serum): 93%
COc1cc(N=Nc2c(S(=O)(=O)O)cc3cc(S(=O)(=O)O)cc(NC(=O)c4cccc5ccccc45)c3c2O)c(OC)cc1N=Nc1ccc2cc(S(=O)(=O)O)cc(NC(=O)c3ccccc3)c2c1O [Compound 13] | – | 160 | – | – | – | Negative | 55 | 70 | 100 | – | –
COc1cc(N=Nc2c(S(=O)(=O)O)cc3cc(S(=O)(=O)O)cc(NC(=O)c4cc(Cl)cc(Cl)c4)c3c2O)c(OC)cc1N=Nc1c(S(=O)(=O)O)cc2cc(S(=O)(=O)O)cc(NC(=O)Cc3ccccc3)c2c1O [Compound 14] | – | 160 | – | – | – | Positive | – | – | – | – | Ames Test, specific mutagenic activity [3, 5]: 0.12 colony no/μg; inhibition at 1.25 µg/mL (HIV-1 RF [4]; 1.25 μg/ml): 50%; inhibition at 2.5 µg/mL (HIV-1 RF [4]; 2.5 μg/ml): 56%; inhibition at 5 µg/mL (HIV-1 RF [4]; 5 μg/ml): 98%
COc1cc(N=Nc2c(S(=O)(=O)O)cc3cc(S(=O)(=O)O)cc(NC(=O)Nc4cccc5ccccc45)c3c2O)c(OC)cc1N=Nc1c(S(=O)(=O)O)cc2cc(S(=O)(=O)O)cc(NC(C)=O)c2c1O [Compound 16] | – | 160 | – | – | – | Positive | – | – | – | – | inhibition at 5 µM [1]: 98%; Ames Test, specific mutagenic activity [3, 5]: 0.03 colony no/μg
COc1cc(N=Nc2c(S(=O)(=O)O)cc3cc(S(=O)(=O)O)cc(NC(=O)c4ccc(Cl)cc4Cl)c3c2O)c(OC)cc1N=Nc1c(S(=O)(=O)O)cc2cc(S(=O)(=O)O)cc(NC(=O)Cc3ccc(Cl)cc3)c2c1O [Compound 18] | – | 135 | – | – | – | Negative | – | – | – | – | inhibition at 5 µM [1]: 66%
COc1cc(N=Nc2c(S(=O)(=O)O)cc3cc(S(=O)(=O)O)cc(NC(=O)c4cccc(Cl)c4Cl)c3c2O)c(OC)cc1N=Nc1c(S(=O)(=O)O)cc2cc(S(=O)(=O)O)cc(NC(=O)c3ccccc3Cl)c2c1O [Compound 21] | – | 160 | – | – | – | Negative | 23 | 77 | 100 | – | inhibition at 2.5 µg/mL (HIV-1 patient isolate IH; 10% FCS): 0%; inhibition at 2.5 µg/mL (HIV-1 patient isolate IH; 50% Human Serum): 10%; inhibition at 5 µg/mL (HIV-1 patient isolate IH; 50% Human Serum): 23%; inhibition at 10 µg/mL (HIV-1 patient isolate IH; 50% Human Serum): 61%; inhibition at 20 µg/mL (HIV-1 patient isolate IH; 50% Human Serum): 100%
